Experiments:
PTH receptor [1] = molecular target: T1, PTH receptor (Rattus norvegicus, UniProt P25961); type: cell-based
T1 construct: endogenous in cells; host or cells: UMR 106-H5 rat osteosarcoma cells
T1 sequence (P25961 27-591): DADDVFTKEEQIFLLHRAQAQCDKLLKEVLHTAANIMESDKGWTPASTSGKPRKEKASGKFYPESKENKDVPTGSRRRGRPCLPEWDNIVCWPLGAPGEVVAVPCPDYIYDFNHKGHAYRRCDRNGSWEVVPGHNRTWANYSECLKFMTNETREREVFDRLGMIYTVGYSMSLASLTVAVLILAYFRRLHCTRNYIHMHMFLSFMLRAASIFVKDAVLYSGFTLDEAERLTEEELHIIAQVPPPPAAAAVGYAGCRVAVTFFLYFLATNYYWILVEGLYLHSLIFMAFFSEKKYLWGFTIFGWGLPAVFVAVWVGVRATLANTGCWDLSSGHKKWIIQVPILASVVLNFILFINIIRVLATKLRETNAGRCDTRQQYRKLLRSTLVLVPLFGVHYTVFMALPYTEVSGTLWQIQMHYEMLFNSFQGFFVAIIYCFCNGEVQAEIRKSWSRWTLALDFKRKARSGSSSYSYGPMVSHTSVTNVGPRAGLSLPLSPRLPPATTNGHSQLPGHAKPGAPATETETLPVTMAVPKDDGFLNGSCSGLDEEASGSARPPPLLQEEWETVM
Method: (§1) Assays were conducted using UMR-160-H5 cells. These assays were performed as described in Cohen et al. (1991), J. Biological Chem., 266(3), 1997 and in the Experimental section, e.g. Example 11. Receptor binding assays were carried out in canine renal plasma membranes and in UMR 106-H5 rat osteosarcoma cells as previously described in detail (Ref. 14,32), using ^125 I-labeled PTH(1-34)amide as the radioligand. Binding potency (IC50) was quantified as the concentration of unlabeled peptide required for half-maximal displacement of the radioligand. […] Adenylate cyclase activity was assessed in canine renal membranes by the conversion of [α-32p ] ATP to [^32 P] cyclic AMP, essentially as described, except for the addition of 100 micromolar GTP (Ref. 33,34). Adenylate cyclase activity in UMR 106-H5 cells was assessed essentially as described (Ref. 35). In brief, cells were incubated with [3H]adenine 1 micro Ci/ml of serum-free MEM for two hours at 37° C. to label the endogenous ATP pool. Cells were then exposed to 0.4 mM IBMX for 10 min, followed by the appropriate peptide for an additional 10 min at ambient temperature. The cells are then scraped in 20% TCA, and [3H]cyclic AMP is isolated by the column procedure of Salomon et al. (Ref. 36). Potency in the adenylate cyclase assays (Ka) is the concentration of peptide producing half-maximal enzyme activation.

PTH receptor [2] = molecular target: T1, PTH receptor; type: binding
Method: as §1, with “Receptor” for “Assays were conducted using UMR-160-H5 cells. These assays were performed as described in Cohen et al. (1991), J. Biological Chem., 266(3), 1997 and in the Experimental section, e.g. Example 11. Receptor”

PTH receptor [3] = settings: Table 5A; intact cells, hPTH(1-34) = 100
PTH receptors = settings: Table 5A; intact cells, hPTH(1-34) = 100
PTH receptor [4] = molecular target: T2, PTH receptor (Canis lupus familiaris, UniProt Q9TU31); type: binding, canine
T2 construct: canine renal plasma membranes; from tissue; host or cells: canine kidney (renal plasma membranes)
T2 sequence (Q9TU31 29-595): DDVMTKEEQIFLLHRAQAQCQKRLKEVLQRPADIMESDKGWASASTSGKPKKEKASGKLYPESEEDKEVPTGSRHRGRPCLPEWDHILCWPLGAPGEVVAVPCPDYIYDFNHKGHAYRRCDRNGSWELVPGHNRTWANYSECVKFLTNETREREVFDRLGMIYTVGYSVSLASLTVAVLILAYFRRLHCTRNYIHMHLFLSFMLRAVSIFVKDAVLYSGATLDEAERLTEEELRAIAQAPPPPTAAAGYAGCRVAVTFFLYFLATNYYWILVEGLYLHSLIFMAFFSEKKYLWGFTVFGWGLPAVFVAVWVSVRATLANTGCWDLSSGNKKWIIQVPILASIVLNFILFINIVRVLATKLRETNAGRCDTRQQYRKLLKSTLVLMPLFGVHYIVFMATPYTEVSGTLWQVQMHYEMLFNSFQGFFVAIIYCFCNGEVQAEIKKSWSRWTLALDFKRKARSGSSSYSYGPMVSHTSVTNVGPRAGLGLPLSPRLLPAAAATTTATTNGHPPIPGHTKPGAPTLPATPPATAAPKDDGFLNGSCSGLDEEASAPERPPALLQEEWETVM
Method: as §1, with “Receptor” for “Assays were conducted using UMR-160-H5 cells. These assays were performed as described in Cohen et al. (1991), J. Biological Chem., 266(3), 1997 and in the Experimental section, e.g. Example 11. Receptor”

PTH receptor [5] = molecular target: T2, PTH receptor; type: biochemical, canine
Method: as §1, with “Receptor” for “Assays were conducted using UMR-160-H5 cells. These assays were performed as described in Cohen et al. (1991), J. Biological Chem., 266(3), 1997 and in the Experimental section, e.g. Example 11. Receptor”

CC[C@H](C)[C@H](NC(=O)[C@H](CCC(=O)O)NC(=O)[C@H](CO)NC(=O)[C@@H](NC(=O)[C@@H](N)CO)C(C)C)C(=O)N[C@@H](CCC(N)=O)C(=O)N[C@@H](CC(C)C)C(=O)N[C@@H](CCSC)C(=O)N[C@@H](Cc1c[nH]cn1)C(=O)N[C@@H](CC(N)=O)C(=O)N[C@@H](CC(C)C)C(=O)NCC(=O)N[C@@H](CCCCN)C(=O)N[C@@H](Cc1c[nH]cn1)C(=O)N[C@@H](CC(C)C)C(=O)N[C@@H](CC(N)=O)C(=O)N[C@@H](CO)C(=O)N[C@@H](CCSC)C(=O)N[C@@H](CCC(=O)O)C(=O)N[C@@H](CCCNC(=N)N)C(=O)N[C@H](C(=O)N[C@@H](CCC(=O)O)C(=O)N[C@@H](Cc1c[nH]c2ccccc12)C(=O)N[C@@H](CC(C)C)C(=O)N[C@@H](CCCNC(=N)N)C(=O)N[C@@H](CCCCN)C(=O)N[C@@H](CCCCN)C(=O)N[C@@H](CC(C)C)C(=O)N[C@@H](CCC(N)=O)C(=O)N[C@@H](CC(=O)O)C(=O)N[C@H](C(=O)N[C@@H](Cc1c[nH]cn1)C(=O)N[C@@H](CC(N)=O)C(=O)N[C@@H](Cc1ccccc1)C(=O)O)C(C)C)C(C)C [hPTH (1-34), hPTH(1-34), reference compound]
100%: BONE CELLS Rat(UMR-106) Potency (AC) (PTH receptor [1]) | UMR106-H5 CELLS Rat Bone Potency (AC) (PTH receptor [1]) | UMR106-H5 CELLS Rat Bone Activity (AC*) (PTH receptor [1]; Table 1(A), relative to hPTH(1-34) = 100%) | BONE CELLS Rat(UMR-106) Activity (AC) (PTH receptor [1]; Table 5A, intact cells, hPTH(1-34) = 100) | BONE CELLS Rat(UMR-106) Potency (B) (PTH receptor [2]) | UMR106-H5 CELLS Rat Bone Potency (B) (PTH receptor [2]) | KIDNEY CELLS (CK) Potency (AC) (PTH receptor [3]) | KIDNEY CELLS (CK) Potency (B) (PTH receptors) | RENAL MEMBRANES Canine Potency (B) (PTH receptor [4]) | RENAL MEMBRANES Canine Potency (AC) (PTH receptor [5]) | RENAL MEMBRANES Canine Activity (AC*) (PTH receptor [5]; Table 1(A), large doses, relative to hPTH(1-34) = 100%) | RENAL MEMBRANES Canine Activity (AC) (PTH receptor [5]; Table 5B, hPTH(1-34) = 100)
